{
  "source": "ChEMBL document CHEMBL5725682",
  "about": "“Therapeutic inhibitory compounds” (2018)",
  "key": {"Plasma kallikrein": {"target": "Plasma kallikrein (Homo sapiens, UniProt P03952)", "sequence (P03952 20-390 limits assumed)": "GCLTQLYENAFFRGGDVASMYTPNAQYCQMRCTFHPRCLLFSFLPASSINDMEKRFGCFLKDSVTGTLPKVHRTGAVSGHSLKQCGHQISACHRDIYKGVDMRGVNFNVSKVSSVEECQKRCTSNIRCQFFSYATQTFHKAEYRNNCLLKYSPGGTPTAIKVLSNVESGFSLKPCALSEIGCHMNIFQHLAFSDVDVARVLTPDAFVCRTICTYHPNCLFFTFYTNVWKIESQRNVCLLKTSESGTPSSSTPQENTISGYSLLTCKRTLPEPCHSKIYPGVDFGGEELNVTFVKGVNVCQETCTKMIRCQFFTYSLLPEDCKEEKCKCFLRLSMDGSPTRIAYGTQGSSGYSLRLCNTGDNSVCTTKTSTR", "sequence (P03952 391-638 limits assumed)": "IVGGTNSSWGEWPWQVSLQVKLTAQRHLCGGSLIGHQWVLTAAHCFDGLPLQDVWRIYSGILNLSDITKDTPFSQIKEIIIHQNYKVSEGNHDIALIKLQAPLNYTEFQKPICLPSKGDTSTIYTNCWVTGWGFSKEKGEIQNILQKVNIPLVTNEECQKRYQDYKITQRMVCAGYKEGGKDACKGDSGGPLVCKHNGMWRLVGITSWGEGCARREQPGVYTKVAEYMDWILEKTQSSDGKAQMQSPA", "test": "In Vitro Enzyme Inhibition of hPK: A 10 mM solution of the test compound was made in DMSO. […] A control tube containing only DMSO is included. […] 50 μL was removed from this mixture and placed into duplicate wells on a Microfluor 1Black U-bottom microtiter plate (Thermo Scientific). This plate was incubated for 5 minutes at 37° C. To each well, 50 μL of pre-warmed 2×PFR-AMC was added to start the enzymatic reaction. Cleavage of PFR-AMC was monitored in a Biotek Synergy H4 reader set at 37° C. Readings are taken every 43 seconds for 1 hour. […] The IC50 is calculated using the Gen5 (Biotek Instruments)."}, "[1]": {"test": "In Vitro Contact Cellular Assay: The test compounds at various concentrations, also prepared by serial dilutions as described above, are added to the test wells. The volume of test compound added to each test well was 12.5 μL, to yield final concentrations of 20 μM, 5 μM, 1.25 μM, 312.5 nM, 78.125 nM, 19.531 nM, 4.883 nM, 1.221 nM, 0.305 nM, and 0.076 nM. Each test compound concentration was tested in duplicates.In addition to the inhibitor control and test wells, the 96 well assay plate includes positive control wells which contained the mixture of human plasma and ellagic acid without C1NH inhibitor or test compounds, and background wells which contained neither the mixture of human plasma and ellagic acid nor the test compounds. The total volume of liquid in positive control and background wells was brought up to 35 μL, using the assay buffer.The assay plate containing C1NH inhibitors and test compounds mixed with human plasma and ellagic acid and appropriate controls was incubated at 37° C. for 5 min. A 10 mM stock solution of substrate Z-FR-2-AMC was diluted to 133.2 μM in the assay buffer, and 15 μL of the diluted substrate was added to each well, to yield a final substrate concentration of 40 μM in each well. The reagents were mixed well by shaking the plate gently for 30 sec.The enzyme reaction was quantified by immediate kinetic reading of the assay plate using excitation/emission wavelengths of 330 nm/440 nm respectively. Fluorescence intensity was recorded for 60 min, using a time interval of 43 sec.The inhibition activity of the test compounds were evaluated using the EC50 values, calculated according to the dose-response curve of the test compounds, fitted using the log(inhibitor)−response (variable slope)¿ equation in GraphPadPrism software (GraphPad Software, Inc.)."}},
  "data": [
    {"smiles": "Cc1nc(N)ccc1CNC(=O)c1ccnc(Cc2ccc3ncc(C4CC4)cc3c2)c1", "values": [
      {"measurement": "IC50", "setting": "Plasma kallikrein", "result": "< 100", "unit": "nM"},
      {"measurement": "EC50", "setting": "[1]", "result": "< 100", "unit": "nM"}
    ]},
    {"smiles": "Cc1nc2c(cc1CNC(=O)c1ccnc(Cc3ccc4ncc(Cl)cc4c3)c1)CNC2", "values": [
      {"measurement": "IC50", "setting": "Plasma kallikrein", "result": "> 10000", "unit": "nM"}
    ]},
    {"smiles": "Cc1cc(C(=O)NCc2c(C)cc(N)nc2C)cc(Cc2ccc3ncc(Cl)cc3c2)n1", "values": [
      {"measurement": "EC50", "setting": "[1]", "result": "< 100", "unit": "nM"}
    ]},
    {"smiles": "Cc1cc(N)nc(C)c1CNC(=O)c1cc(Cc2ccc3ncc(Cl)cc3c2)nc(C(N)=O)c1", "values": [
      {"measurement": "EC50", "setting": "[1]", "result": "in the range around 550 nM"}
    ]},
    {"smiles": "Cc1cc(N)nc(C)c1CNC(=O)c1ccnc(Cc2cccc(-c3noc(=O)[nH]3)c2)c1", "values": [
      {"measurement": "IC50", "setting": "Plasma kallikrein", "result": "> 10000", "unit": "nM"}
    ]},
    {"smiles": "Nc1nccc2cc(CNC(=O)c3ccnc(Cc4ccc5ncc(N6CCCC6)cc5c4)c3)ccc12", "values": [
      {"measurement": "IC50", "setting": "Plasma kallikrein", "result": "< 100", "unit": "nM"}
    ]},
    {"smiles": "Cc1cc(N)nc(C)c1CNC(=O)c1ccnc(Cc2ccc3ncc(CC(F)F)cc3c2)c1", "values": [
      {"measurement": "IC50", "setting": "Plasma kallikrein", "result": "< 100", "unit": "nM"},
      {"measurement": "EC50", "setting": "[1]", "result": "< 100", "unit": "nM"}
    ]},
    {"smiles": "Nc1nccc2cc(CNC(=O)c3ccnc(Cc4ccc5ncc(Cl)cc5c4)c3)ccc12", "values": [
      {"measurement": "EC50", "setting": "[1]", "result": "< 100", "unit": "nM"}
    ]}
  ]
}
